Assay results from patent US11724995B2, “Decalin derivatives, a process for the preparation and pharmaceutical composition thereof” (Council of Scientific & Industrial Research, priority 2018, dated 2023).

tested on: Sickle cell red blood cells (SS RBCs); assay: Flow adhesion assay: sickle cell adhesion inhibition, RBCs perfused over TNF-α activated HUVEC monolayer; assay type: cell-based; details: Homo sapiens; Table 1; SS RBCs treated with test compound at 100 μM, hypoxic condition 2 h; adhesion to TNF-α activated HUVEC monolayer under pulsatile flow; read-out: Inhibition (percentage of inhibition of cell adhesion)
Method: In still yet another embodiment, the present disclosure provides Sickle cell adhesion inhibition using Sickle cell red blood cells (SS RBCs). Flow adhesion assay are performed with commercial microfluidic-well plate and microfluidic flow adhesion system. Microfluidic channels are coated by perfusion (1 dyne/cm^2, 5 min) and incubated (37° C., 1 h) with 100 ng/ml Fibronectin. Channels are then perfused with complete media to remove unbound Fibronectin. Then a uniform monolayer of HUVEC cells is formed by profusing micro channels with the cell suspension at a pressure of 3 dyne/cm^2 for 5 sec and kept for 12 hours incubation to form monolayer. The HUVEC monolayer is activated 25 ng/ml of TNF-α and incubated (37° C., 4 h). Meanwhile Sickle cell red blood cell (SS RBCs) are treated with test compound at 100 μM concentration and incubated in hypoxic condition ([…], 5% CO2, 2 h). Flow condition for adhesion assay was pulsatile (1.67 Hz) flow (0.3 dyne/cm^2). For adhesion inhibition assay SS RBCs are diluted (2:50) in PBS. SS RBCs are perfused over HUVEC monolayer and incubated for 1 h. Unbound cells in micro channels are removed by perfusing complete media. Adherent cells are enumerated. Table 1 depicts percentage of inhibition when the compounds are tested at 100 μM concentration.
Flow adhesion assay were performed with commercial microfluidic-well plate and microfluidic flow adhesion system, Bio flux 200. Microfluidic channels were coated by perfusion (1 dyne/cm^2, 5 min) and incubated (37° C., 1 h) with 100 ng/ml Fibronectin. Channels were then perfused with complete media to remove unbound Fibronectin. Then a uniform monolayer of HUVEC cells was formed by profusing micro channels with the cell suspension at a pressure of 3 dyne/cm^2 for 5 sec and kept for 12 hours incubation to form monolayer. The HUVEC monolayer was activated 25 ng/ml of TNF-α and incubated (37° C., 4 h). Meanwhile RBCs were treated with test compound at 100 μM concentration and incubated in hypoxic condition ([…], 5% CO2, 2 h). Flow condition for adhesion assay was pulsatile (1.67 Hz) flow (0.3 dyne/cm^2). For adhesion inhibition assay RBCs were diluted (2:50) in PBS. RBCs were perfused over HUVEC monolayer and incubated for 1 h. Unbound cells in micro channels were removed by perfusing complete media. Adherent cells were enumerated.

Point of comparison: `C[C@@H]1CC=CC2=CC(=O)CC[C@]21C` [Compound 24, (4aS,5R)-4a,5-dimethyl-4,4a,5,6-tetrahydronaphthalen-2(3H)-one], inhibition at 100 µM 67%. Against it:
- C[C@@H]1CC(=O)C=C2C[C@@H](O)[C@@H](O)C[C@]21C [Compound 28, (4R,4aS)-6,7-dihydroxy-4,4a-dimethyl-4,4a,5,6,7,8-hexahydronaphthalen-2(3H)-one] — lower, 56%
- C[C@@H]1CC(=O)C=C2C=CCC[C@]21C [Compound 21, (4R,4aS)-4,4a-dimethyl-4,4a,5,6-tetrahydronaphthalen-2(3H)-one] — higher, 78%
- C[C@@H]1CC(=O)C=C2C=CC(=O)C[C@]21C [Compound 29, (8R,8aS)-8,8a-dimethyl-1,7,8,8a-tetrahydronaphthalene-2,6-dione] — higher, 70%
- C[C@@H]1C(=O)C=CC2=CC(=O)CC[C@]21C [Compound 30, (1S,8aS)-1,8a-dimethyl-1,7,8,8a-tetrahydronaphthalene-2,6-dione] — higher, 72%
